Source: publication PMC5218480 (PLoS ONE, 2017)

Test system: MV-4-11 cells
Test: Gene expression microarray analysis (Affymetrix PrimeView) and GSEA
Format: cell-based, human
Set-up: RFU PODN (11730768_x_at) / Fold change /veh PODN (11730768_x_at) / RFU LINC00158 (11744669_a_at) / Fold change /veh LINC00158 (11744669_a_at) / RFU DUSP10 (11751237_a_at) / Fold change /veh DUSP10 (11751237_a_at) / RFU ID3 (11757404_x_at) / Fold change /veh ID3 (11757404_x_at) / RFU PLEKHG5 (11737974_s_at) / Fold change /veh PLEKHG5 (11737974_s_at) / RFU LRRC4B (11730491_at) / Fold change /veh LRRC4B (11730491_at) / RFU GIMAP4 (11747438_a_at) / Fold change /veh GIMAP4 (11747438_a_at) / RFU KRT8 (11758183_x_at) / Fold change /veh KRT8 (11758183_x_at) / RFU CNN1 (11734310_a_at) / Fold change /veh CNN1 (11734310_a_at) / RFU VPS37D (11726825_at) / Fold change /veh VPS37D (11726825_at) / RFU C10orf10 (11716522_x_at) / Fold change /veh C10orf10 (11716522_x_at) / RFU KIR2DL2 /// KIR2DL4 /// KIR2DL5A /// KIR2DL5B /// KIR2DS1 /// KIR2DS2 /// KIR2DS3 /// KIR2DS4 /// KIR3DL3 /// KIR3DL3 /// KIR3DS1 (11738374_at) / Fold change /veh KIR2DL2 /// KIR2DL4 /// KIR2DL5A /// KIR2DL5B /// KIR2DS1 /// KIR2DS2 /// KIR2DS3 /// KIR2DS4 /// KIR3DL3 /// KIR3DL3 /// KIR3DS1 (11738374_at) / RFU C1QL1 (11718748_at) / Fold change /veh C1QL1 (11718748_at) / RFU TMPRSS4 (11747572_a_at) / Fold change /veh TMPRSS4 (11747572_a_at) / RFU HAMP (11756126_x_at) / Fold change /veh HAMP (11756126_x_at) / RFU RNFT2 (11725882_a_at) / Fold change /veh RNFT2 (11725882_a_at) / RFU NR4A2 (11747474_a_at) / Fold change /veh NR4A2 (11747474_a_at) / RFU ABCC12 (11746883_a_at) / Fold change /veh ABCC12 (11746883_a_at) / RFU TMEM136 (11760407_x_at) / Fold change /veh TMEM136 (11760407_x_at) / RFU CLDN22 /// WWC2 (11732394_at) / Fold change /veh CLDN22 /// WWC2 (11732394_at) / RFU HLA-DPB1 (11760878_x_at) / Fold change /veh HLA-DPB1 (11760878_x_at) / RFU SPINT1 (11716480_a_at) / Fold change /veh SPINT1 (11716480_a_at) / RFU GAP43 (11754022_s_at) / Fold change /veh GAP43 (11754022_s_at) / RFU A4GNT (11735810_at) / Fold change /veh A4GNT (11735810_at) / RFU PRB3 (11715151_x_at) / Fold change /veh PRB3 (11715151_x_at) / RFU TUBB4B (11761932_at) / Fold change /veh TUBB4B (11761932_at) / RFU CAPN14 (11732068_a_at) / Fold change /veh CAPN14 (11732068_a_at) / RFU TMCC2 (11721928_a_at) / Fold change /veh TMCC2 (11721928_a_at) / RFU IRGQ (11745062_a_at) / Fold change /veh IRGQ (11745062_a_at) / RFU FAM174B (11720279_a_at) / Fold change /veh FAM174B (11720279_a_at) / RFU TMPRSS4 (11748680_a_at) / Fold change /veh TMPRSS4 (11748680_a_at) / RFU FAM212B (11763350_a_at) / Fold change /veh FAM212B (11763350_a_at) / RFU PLEKHG5 (11743358_a_at) / Fold change /veh PLEKHG5 (11743358_a_at) / RFU ZSCAN30 (11745921_a_at) / Fold change /veh ZSCAN30 (11745921_a_at) / RFU CMKLR1 (11741424_a_at) / Fold change /veh CMKLR1 (11741424_a_at) / RFU LOC101060620 /// MAPK8IP1 (11723275_at) / Fold change /veh LOC101060620 /// MAPK8IP1 (11723275_at) / RFU SPTSSB (11747773_x_at) / Fold change /veh SPTSSB (11747773_x_at) / RFU PRSS12 (11739890_at) / Fold change /veh PRSS12 (11739890_at) / RFU BIN1 (11741810_x_at) / Fold change /veh BIN1 (11741810_x_at) / RFU WNT11 (11732464_a_at) / Fold change /veh WNT11 (11732464_a_at) / RFU C10orf10 (11716521_a_at) / Fold change /veh C10orf10 (11716521_a_at) / RFU C5orf56 (11738089_at) / Fold change /veh C5orf56 (11738089_at) / RFU CYB561 (11721691_x_at) / Fold change /veh CYB561 (11721691_x_at) / RFU ANKRD19P (11752326_a_at) / Fold change /veh ANKRD19P (11752326_a_at) / RFU OR2T12 /// OR2T33 /// OR2T8 (11738714_s_at) / Fold change /veh OR2T12 /// OR2T33 /// OR2T8 (11738714_s_at) / RFU VCAN (11748164_a_at) / Fold change /veh VCAN (11748164_a_at) / RFU JSRP1 (11732532_at) / Fold change /veh JSRP1 (11732532_at) / RFU KRTAP10-11 (11738290_x_at) / Fold change /veh KRTAP10-11 (11738290_x_at) / RFU MYO3A (11730013_a_at) / Fold change /veh MYO3A (11730013_a_at) / RFU EBF3 (11725865_a_at) / Fold change /veh EBF3 (11725865_a_at) / RFU CAMK2N1 (11719241_x_at) / Fold change /veh CAMK2N1 (11719241_x_at) / RFU C5orf56 (11738088_a_at) / Fold change /veh C5orf56 (11738088_a_at) / RFU OLFML3 (11715873_a_at) / Fold change /veh OLFML3 (11715873_a_at) / RFU LOC100653217 /// NTM (11731650_a_at) / Fold change /veh LOC100653217 /// NTM (11731650_a_at) / RFU MAPK11 (11762145_a_at) / Fold change /veh MAPK11 (11762145_a_at) / RFU FIZ1 (11724087_x_at) / Fold change /veh FIZ1 (11724087_x_at) / RFU OASL (11726364_x_at) / Fold change /veh OASL (11726364_x_at) / RFU SOX15 (11748057_x_at) / Fold change /veh SOX15 (11748057_x_at) / RFU CD79A (11719716_a_at) / Fold change /veh CD79A (11719716_a_at) / RFU HIST1H1D (11736915_at) / Fold change /veh HIST1H1D (11736915_at) / RFU CASKIN2 (11723855_a_at) / Fold change /veh CASKIN2 (11723855_a_at) / RFU LOC730098 (11760151_x_at) / Fold change /veh LOC730098 (11760151_x_at) / RFU OR4N2 (11742367_at) / Fold change /veh OR4N2 (11742367_at) / RFU PRRT2 (11749266_a_at) / Fold change /veh PRRT2 (11749266_a_at) / RFU SNX32 (11753110_a_at) / Fold change /veh SNX32 (11753110_a_at) / RFU CDHR5 (11726645_a_at) / Fold change /veh CDHR5 (11726645_a_at) / RFU RCAN1 (11760418_a_at) / Fold change /veh RCAN1 (11760418_a_at) / RFU FAM167A (11723789_a_at) / Fold change /veh FAM167A (11723789_a_at) / RFU FAM26E (11764081_at) / Fold change /veh FAM26E (11764081_at) / RFU ISYNA1 (11749810_s_at) / Fold change /veh ISYNA1 (11749810_s_at) / RFU ACY1 (11761880_at) / Fold change /veh ACY1 (11761880_at) / RFU 11764098_at / Fold change /veh 11764098_at / RFU SAMD14 (11745864_x_at) / Fold change /veh SAMD14 (11745864_x_at) / RFU NPB (11741838_a_at) / Fold change /veh NPB (11741838_a_at) / RFU TMPRSS6 (11731388_a_at) / Fold change /veh TMPRSS6 (11731388_a_at) / RFU KRTAP10-2 (11738614_at) / Fold change /veh KRTAP10-2 (11738614_at) / RFU ARHGAP8 /// PRR5-ARHGAP8 (11727945_x_at) / Fold change /veh ARHGAP8 /// PRR5-ARHGAP8 (11727945_x_at) / RFU KRTAP5-7 /// NADSYN1 (11734609_at) / Fold change /veh KRTAP5-7 /// NADSYN1 (11734609_at) / RFU RASL12 (11751679_a_at) / Fold change /veh RASL12 (11751679_a_at) / RFU CDKN2B (11736163_a_at) / Fold change /veh CDKN2B (11736163_a_at) / RFU PRF1 (11729649_at) / Fold change /veh PRF1 (11729649_at) / RFU, ZNF638 /// ZNF638-IT1 / Fold change vs veh, ZNF638 /// ZNF638-IT1 / RFU, PANK3 / Fold change vs veh, PANK3 / RFU, SH3YL1 / Fold change vs veh, SH3YL1 / RFU, ZEB2 / Fold change vs veh, ZEB2 / RFU, NRIP1 / Fold change vs veh, NRIP1 / RFU, PTTG1IP / Fold change vs veh, PTTG1IP / RFU, CAPN2 / Fold change vs veh, CAPN2 / RFU, MED14 / Fold change vs veh, MED14 / RFU, SNORA58 / Fold change vs veh, SNORA58 / RFU, C1orf63 / Fold change vs veh, C1orf63 / RFU, LRRFIP1 / Fold change vs veh, LRRFIP1 / RFU, NDUFAF7 / Fold change vs veh, NDUFAF7 / RFU, SLC12A2 / Fold change vs veh, SLC12A2 / RFU, IBTK / Fold change vs veh, IBTK / RFU, ESF1 / Fold change vs veh, ESF1 / Fold change vs veh, TMEM50B / RFU, TAOK1 / Fold change vs veh, TAOK1 / RFU, ACBD3 / Fold change vs veh, ACBD3 / RFU, TMA16 / Fold change vs veh, TMA16 / RFU, RWDD3 / Fold change vs veh, RWDD3 / RFU, BCAT1 / Fold change vs veh, BCAT1 / RFU, EDEM3 / Fold change vs veh, EDEM3 / RFU, TMEM33 / Fold change vs veh, TMEM33 / RFU, WDR75 / Fold change vs veh, WDR75 / RFU, AHCTF1 / Fold change vs veh, AHCTF1 / RFU, TFRC / Fold change vs veh, TFRC / RFU, ZDHHC17 / Fold change vs veh, ZDHHC17 / RFU, NOM1 / Fold change vs veh, NOM1 / RFU, ARL8B / Fold change vs veh, ARL8B / RFU, ZBTB11 / Fold change vs veh, ZBTB11 / RFU, TAMM41 / Fold change vs veh, TAMM41 / RFU, KIAA1704 /// LOC100996395 / Fold change vs veh, KIAA1704 /// LOC100996395 / RFU, ING1 / Fold change vs veh, ING1 / RFU, TRMT61B / Fold change vs veh, TRMT61B / RFU, FUBP3 / Fold change vs veh, FUBP3 / RFU, TP53 / Fold change vs veh, TP53 / RFU, TNKS2 / Fold change vs veh, TNKS2 / RFU, ZFP14 / Fold change vs veh, ZFP14 / RFU, ACTR2 / Fold change vs veh, ACTR2 / RFU, PPP3R1 / Fold change vs veh, PPP3R1 / RFU, PIK3R1 / Fold change vs veh, PIK3R1 / RFU, HNRNPA1 / Fold change vs veh, HNRNPA1 / RFU, RNF170 / Fold change vs veh, RNF170 / RFU, ZNF28 / Fold change vs veh, ZNF28 / RFU, RNGTT / Fold change vs veh, RNGTT / RFU, OGT / Fold change vs veh, OGT / RFU, BRD1 / Fold change vs veh, BRD1 / RFU, MARS / Fold change vs veh, MARS / RFU, ZNF655 / Fold change vs veh, ZNF655 / RFU, FAHD1 / Fold change vs veh, FAHD1 / RFU, BDP1 / Fold change vs veh, BDP1 / RFU, LRRCC1 / Fold change vs veh, LRRCC1 / RFU, ARID1A / Fold change vs veh, ARID1A / RFU, ZNF146 / Fold change vs veh, ZNF146 / RFU, ZNF330 / Fold change vs veh, ZNF330 / RFU, GPN3 / Fold change vs veh, GPN3 / RFU, C9orf123 / Fold change vs veh, C9orf123 / RFU, N4BP2L2 / Fold change vs veh, N4BP2L2 / RFU, ARFIP1 / Fold change vs veh, ARFIP1 / RFU, FAM179B / Fold change vs veh, FAM179B / RFU, BCL10 / Fold change vs veh, BCL10 / RFU, UHRF1BP1L / Fold change vs veh, UHRF1BP1L / RFU, BET1 / Fold change vs veh, BET1 / RFU, CNOT2 / Fold change vs veh, CNOT2 / RFU, ZNF268 / Fold change vs veh, ZNF268 / Fold change vs veh, ZNF507 / RFU, DGCR2 / Fold change vs veh, DGCR2 / RFU, WDSUB1 / Fold change vs veh, WDSUB1 / Fold change vs veh, HSP90B1 /// MIR3652 / RFU, ADSS / Fold change vs veh, ADSS / RFU, GK / Fold change vs veh, GK / RFU, ZNF148 / Fold change vs veh, ZNF148 / RFU, TAF9 / Fold change vs veh, TAF9 / RFU, SLC1A5 / Fold change vs veh, SLC1A5 / RFU, SLMO2 / Fold change vs veh, SLMO2 / RFU, ABCC4 / Fold change vs veh, ABCC4 / RFU, LOC101060439 /// RAP1B / Fold change vs veh, LOC101060439 /// RAP1B / RFU, RFX7 / Fold change vs veh, RFX7 / RFU, GTPBP10 / Fold change vs veh, GTPBP10 / RFU, CNEP1R1 / Fold change vs veh, CNEP1R1 / RFU, BIVM-ERCC5 /// ERCC5 / Fold change vs veh, BIVM-ERCC5 /// ERCC5 / RFU, ILF3 / Fold change vs veh, ILF3 / RFU 11762660_at / Fold change /veh 11762660_at / RFU VCAN (11757783_s_at) / Fold change /veh VCAN (11757783_s_at) / RFU DDX43 (11728927_at) / Fold change /veh DDX43 (11728927_at) / RFU KRT8 (11758188_x_at) / Fold change /veh KRT8 (11758188_x_at) / RFU NKD1 (11759106_at) / Fold change /veh NKD1 (11759106_at) / RFU SRD5A1 (11742802_a_at) / Fold change /veh SRD5A1 (11742802_a_at) / RFU TPSAB1 /// TPSB2 (11721975_s_at) / Fold change /veh TPSAB1 /// TPSB2 (11721975_s_at) / RFU GSTM3 (11746129_a_at) / Fold change /veh GSTM3 (11746129_a_at) / RFU IL23R (11737362_x_at) / Fold change /veh IL23R (11737362_x_at) / RFU TMEM51 (11727254_a_at) / Fold change /veh TMEM51 (11727254_a_at) / RFU PIWIL2 (11732686_x_at) / Fold change /veh PIWIL2 (11732686_x_at) / RFU ORM1 (11744905_x_at) / Fold change /veh ORM1 (11744905_x_at) / RFU CCDC152 (11743942_at) / Fold change /veh CCDC152 (11743942_at) / RFU ECM1 (11717891_a_at) / Fold change /veh ECM1 (11717891_a_at) / RFU IL23R (11748794_a_at) / Fold change /veh IL23R (11748794_a_at) / RFU TNFAIP8L3 (11732012_x_at) / Fold change /veh TNFAIP8L3 (11732012_x_at) / RFU MBOAT4 (11741988_at) / Fold change /veh MBOAT4 (11741988_at) / RFU 11764193_at / Fold change /veh 11764193_at / RFU TMEM53 (11763286_at) / Fold change /veh TMEM53 (11763286_at) / RFU MAGEB2 (11727129_at) / Fold change /veh MAGEB2 (11727129_at) / RFU TMEM200A (11744735_a_at) / Fold change /veh TMEM200A (11744735_a_at) / RFU CCDC152 (11751479_a_at) / Fold change /veh CCDC152 (11751479_a_at) / RFU FAM211A (11726209_a_at) / Fold change /veh FAM211A (11726209_a_at) / RFU RGS16 (11746705_a_at) / Fold change /veh RGS16 (11746705_a_at) / RFU VCAN (11755009_s_at) / Fold change /veh VCAN (11755009_s_at) / RFU RHOB (11743442_s_at) / Fold change /veh RHOB (11743442_s_at) / RFU RGS16 (11720943_a_at) / Fold change /veh RGS16 (11720943_a_at) / RFU RGS16 (11720944_at) / Fold change /veh RGS16 (11720944_at) / RFU, VPS4B / Fold change vs veh, VPS4B / RFU, CREB1 / Fold change vs veh, CREB1 / RFU, DNAJC13 / Fold change vs veh, DNAJC13 / RFU, GNAQ / Fold change vs veh, GNAQ / RFU, CDK5R1 / Fold change vs veh, CDK5R1 / RFU, ZRANB3 / Fold change vs veh, ZRANB3 / RFU, CUL4A / Fold change vs veh, CUL4A / RFU, CCNY / Fold change vs veh, CCNY / RFU, UFL1 / Fold change vs veh, UFL1 / RFU, COG3 / Fold change vs veh, COG3 / RFU, DIAPH2 / Fold change vs veh, DIAPH2 / RFU, SKA2 / Fold change vs veh, SKA2 / RFU, AFF3 / Fold change vs veh, AFF3 / RFU, LMF1 / Fold change vs veh, LMF1 / RFU, IPO11 / Fold change vs veh, IPO11 / RFU, DFFB / Fold change vs veh, DFFB / RFU, FOXP1 / Fold change vs veh, FOXP1 / RFU, CARD8 / Fold change vs veh, CARD8 / RFU, STRN3 / Fold change vs veh, STRN3 / RFU, ADK / Fold change vs veh, ADK / RFU, RASSF2 / Fold change vs veh, RASSF2 / RFU, WIPF1 / Fold change vs veh, WIPF1 / RFU, LARP1B / Fold change vs veh, LARP1B / RFU, RASA1 / Fold change vs veh, RASA1 / RFU, RB1 / Fold change vs veh, RB1 / RFU, PPFIA1 / Fold change vs veh, PPFIA1 / RFU, MAT2A / Fold change vs veh, MAT2A / RFU, CCT5 / Fold change vs veh, CCT5 / RFU, WDR92 / Fold change vs veh, WDR92 / RFU, CUX1 / Fold change vs veh, CUX1 / RFU, TTC7A / Fold change vs veh, TTC7A / RFU, TMEM135 / Fold change vs veh, TMEM135 / RFU, DEPTOR / Fold change vs veh, DEPTOR / RFU, CPM / Fold change vs veh, CPM / RFU, DNAJB6 / Fold change vs veh, DNAJB6 / RFU, CACNA2D3 / Fold change vs veh, CACNA2D3 / RFU, DTX4 / Fold change vs veh, DTX4 / RFU, TFCP2 / Fold change vs veh, TFCP2 / RFU, GMCL1 /// GMCL1P1 / Fold change vs veh, GMCL1 /// GMCL1P1 / RFU, AEBP2 / Fold change vs veh, AEBP2 / RFU, SNHG1 /// SNORD22 /// SNORD25 /// SNORD26 /// SNORD27 /// SNORD28 /// SNORD29 /// SNORD31 / Fold change vs veh, SNHG1 /// SNORD22 /// SNORD25 /// SNORD26 /// SNORD27 /// SNORD28 /// SNORD29 /// SNORD31 / Fold change (Aza/veh), C12orf56 (ProbeSet 11735607_a_at) / Fold change (ACY-1035/veh), C12orf56 (ProbeSet 11735607_a_at) / Fold change (Aza/veh), FGFR1OP (ProbeSet 11751329_s_at) / Fold change (ACY-1035/veh), FGFR1OP (ProbeSet 11751329_s_at) / Fold change (Aza/veh), VPS36 (ProbeSet 11739960_a_at) / Fold change (ACY-1035/veh), VPS36 (ProbeSet 11739960_a_at) / RFU SYPL1 (11715823_x_at) / Fold change /veh SYPL1 (11715823_x_at) / RFU IGFBP7 (11715501_s_at) / Fold change /veh IGFBP7 (11715501_s_at) / RFU REEP3 (11722064_at) / Fold change /veh REEP3 (11722064_at) / RFU IGLL1 (11728026_x_at) / Fold change /veh IGLL1 (11728026_x_at): dose or concentration left out as unconfirmed
Conditions: MV-4-11 cells, 48 hours

Nc1ccc(-c2cccs2)cc1NC(=O)c1ccc2c(c1)cc(C1CC1)n2CCN1CCOCC1 [ACY-1035]
Fold change /veh SPTSSB (11747773_x_at): 0.98
